The results in this text go back to US20090047221A1 (NIPRI LIMITED, priority 2004, published 2009).

Read-outs that look alike come from different tables or passages of the source. A value given as a limit tells only on which side of the number the result lay.

Common to all, as to type: cell-based
One assay has as its system RKO. The assay is described as follows: MTT assay (anti-proliferative activity). From the text:
(§1) The MTT assay was used initially to determine the anti-proliferative activity of the test compounds. In the MTT assay a yellow thiazolyl blue tetrazolium bromide salt (MTT) is reduced, in metabolically active cells, to form insoluble purple formazan crystals which are solubilised by the addition of dimethyl sulphoxide (DMSO). Absorbance readings can then be determined spectrophotometrically and a relationship established between control untreated cells and drug treated cells enabling the quantification of anti-proliferative changes as a result of drug treatment (Mosmann, 1983).
(§2) Wells containing medium only were used as blanks. Following the attachment period, cells were treated with appropriate drug concentrations (20 μl added per well). 40 mg/ml stock drug solutions, in DMSO, were stored at −20° C. and on the day of drug treatment working solutions of 4 mg/ml were prepared in medium which was further diluted to achieve final drug dilution volumes of 20 μl. Initial screening was determined over a concentration range of 1-200 μg/ml. For potent compounds the assay was repeated over a narrower concentration range to determine accurate IC50 values. Cells were exposed to drug for 96 h continual exposure (37° C., 5% CO2). Following the 96 h incubation, 50 μl MTT solution (1 g MTT/500 ml PBS) was added per well and the plates were further incubated for 4 h (37° C., 5% CO2). After incubation the MTT and medium was removed from the wells and 100 μl DMSO added per well. Plates were agitated on an orbital mixer platform (Stuart Scientific) for 10 minutes. Absorbance was measured at 570 nm on a Biotrak II (Amersham Bioscience) plate reader. IC50 values were calculated comparing control and drug treated cells.
In general terms: Tetrazolium dyes change colour on reduction, which living cells bring about.

The next assay concerns PNT2. The assay is described as follows: MTT assay (anti-proliferative activity).
Description: as §1, §2

The next assay has as its system ZR-75-1. The assay is described as follows: MTT assay (anti-proliferative activity).
Description: as §1, §2

A further assay deals with PC3. Put plainly: MTT assay (anti-proliferative activity).
Description: as §1, §2

The next assay deals with LNCAP. Put plainly: MTT assay (anti-proliferative activity).
Description: as §1, §2

A further assay relates to H23. The assay is described as follows: MTT assay (anti-proliferative activity).
Description: as §1, §2

Another assay has as its system HT29. Put plainly: MTT assay (anti-proliferative activity).
Description: as §1, §2

A further assay relates to HCT+/+. The assay is described as follows: MTT assay (anti-proliferative activity).
Description: as §1, §2

The next assay has as its system HCT−/−. Put plainly: MTT assay (anti-proliferative activity).
Description: as §1, §2

The next assay has as its system MalMe3M. The assay is described as follows: MTT assay (anti-proliferative activity). The settings on record: 96 h continual exposure, read-out: IC 50 MalMe3M. The protocol: (§3) The MTT assay was used initially to determine the anti-proliferative activity of the test compounds. In the MTT assay a yellow thiazolyl blue tetrazolium bromide salt (MTT) is reduced, in metabolically active cells, to form insoluble purple formazan crystals which are solubilised by the addition of dimethyl sulphoxide (DMSO).
as §2, with “For potent compounds the assay was repeated over a narrower concentration range to determine accurate IC50 values.” left out

The subject of a further assay is MDA-MB-468. The assay is described as follows: MTT assay (anti-proliferative activity). The following applies: read-out: IC 50 MDA-MB-468. The protocol:
as §3
as §2, with “For potent compounds the assay was repeated over a narrower concentration range to determine accurate IC50 values.” left out

The next assay relates to MCF-7. The assay is described as follows: MTT assay (anti-proliferative activity). The settings on record: read-out: IC 50 MCF-7. The protocol:
as §3
as §2, with “For potent compounds the assay was repeated over a narrower concentration range to determine accurate IC50 values.” left out

The test system of another assay is SkMel28. The assay is described as follows: MTT assay (anti-proliferative activity). The settings on record: read-out: IC 50 SkMel28. The method, then:
as §3
as §2, with “For potent compounds the assay was repeated over a narrower concentration range to determine accurate IC50 values.” left out

Assay [1] concerns breast cancer (MDA-MB-468 and MCF-7 cell lines) and melanoma cell lines (MalMe3, SkMe128). The assay is described as follows: Cell cycle analysis by flow cytometry (propidium iodide); apoptosis as cells in sub G0/G1 (pre G0) peak. The following applies: following treatment with IC70 concentration of compound. The method, then:
Assessment of cell cycle analysis was performed using propidium iodide staining of cells and subsequent analysis on a Beckton Dickinson flow cytometer. […] The following day the medium was removed and replaced with 5 ml medium per flask containing the appropriate drug concentrations to be tested. 40 mg/ml stock drug solutions in DMSO were stores at −20° C. and on the day off drug treatment working solutions of 4 mg/ml were prepared in medium from which the final drug dilutions were prepared. Cells were maintained in an incubator (37° C., 5% CO2) for up to 96 h post treatment. After 24, 48, 72 or 96 h time points the medium from each flask was collected, stored on ice, and the remaining cells in the flasks were trypsinised by aiding 1 ml trypsin-EDTA solution to each flask. Cells were replaced into the incubator for 10 min to allow them to detach from the plastic plate. The cells in each flask were collected by adding the appropriate medium removed from each flask back to the corresponding flask and then placing medium containing both the attached and floating cells into a 15 ml tube. Cells were centrifuged at 4° C. for 5 min at 1500 rpm and the supernatant removed from each tube. The remaining cells were washed twice in ice cold PBS and then fixed in ice cold methanol overnight at −20° C. On the day of analysis of cells each tube was centrifuged at 4° C. for 5 min at 1500 rpm and the methanol removed and the cells washed twice in ice cold PBS. 20 μl propidium iodide solution (1 mg/ml) and 20 μl RNase A (10 mg/ml solution) were added to 1 ml PBS per tube and the cells were incubated for 30 min at 37° C. Cells were analysed on the flow cytometer and cell cycle changes were assessed.
On the technique in general: In flow cytometry, cells or beads pass a laser one at a time.

Assay [2] is described as follows: Synergy with known cancer drugs measured using an MTT assay (FIGS. 9a-9c). The settings on record: ALM-54 at 0.5 μg.
Description: as §1, §2

The test system of the next assay is H157. Put plainly: MTT assay (anti-proliferative activity). The following applies: Homo sapiens, NCI-H157.
Description: as §1, §2

In assay [3] the test system is caspase 3 in MDA-MB-468 breast cancer cells. Put plainly: Western blotting (immunoblot), caspase 3 cleavage. The settings on record: concentrations similar to those required to kill MDA-MB-468 breast cancer cells. The protocol: Western blotting was used to assess drug induced changes of cellular proteins. Cells were seeded in P90 tissue culture vessels and treated with drugs at a range of concentrations for 72 and 96 h. Following incubation of cells for the required duration the medium was collected from the cells and attached cells were scraped from the tissue culture vessel and collected into the medium. Excess medium was removed by centrifugation at 4° C. for 5 minutes at […] and the supernatant removed from each tube. The remaining cells were washed twice in ice cold PBS and then incubated on ice with protein extraction buffer (10 mM Tris-HCl, 150 mM NaCl, 1 mM EDTA, 1% Triton-X, 0.1% SDS and a protease inhibitor) for 20 min. Cells were sonicated and centrifuged for 5 min at 4° C. and the supernatant removed for subsequent analysis. Protein samples were stored at −70° C. until analyses. 8, 10 or 12% acrylamide gels were prepared and used depending on size of protein to be determined. Protein concentrations were determined using the BCA™ (bicinchoninic acid) protein determination assay (Pierce) according to manufacturer's guidelines and 30-50 μg protein samples were loaded and separated on the acrylamide gels. Gels were ran at 150V for approximately 2 h at 4° C. Following separation of the protein samples each was transferred to a PVDF transfer membrane (Hybond-P) overnight at 4° C. at 40V. […]
Background: Immunoblotting shows a protein as a band on a membrane.

As to `CC1Cc2ccc(C(=O)NC(Cc3ccccc3)C(=O)O)c(O)c2C(=O)O1` (mixture of isomers) [ALM-54], the IC50 with RKO was 2.7 µM; in the assay on PNT2 it was 5.4 µM; in the assay with ZR-75-1, 0.13 µM; with PC3, 5.4 µM; in the assay on LNCAP, 4.7 µM; with H23 it was 2 µM. Also, the IC50 in the assay with HT29 worked out at 1.3 µM; in the assay with HCT+/+, 16.3 µM; with HCT−/−, 10.8 µM; in the assay on MalMe3M, 13.5 µM; in the assay with MDA-MB-468 (96 h continual exposure), 10.8 µM; with MCF-7 (96 h continual exposure), 16.2 µM. Further, in the assay on SkMel28 (96 h continual exposure), the IC50 was 46 µM. Moreover, in assay [1], the “% Cells in Pre G0 phase of Cell Cycle” value is reported as 12.8%. The synergy with irinotecan entry in assay [2] (FIG. 9a) is “synergy”. Moreover, the synergy with vinorelbine entry in [2] (FIG. 9b) is “synergy”. Further, in assay [2] (FIG. 9c), the synergy with cisplatin entry is “synergy”.
Take `CC1Cc2cccc(O)c2C(=O)O1` (racemic) [ALM-9, Racemic Mellein]: the IC50 is 494 µM in the assay on RKO (Homo sapiens, RKO); 421 µM in the assay on PNT2 (Homo sapiens, PNT2); 281 µM in the assay on ZR-75-1 (Homo sapiens, ZR-75-1); 421 µM in the assay with PC3 (Homo sapiens, PC-3); greater than 561 µM with LNCAP (Homo sapiens, LNCaP); greater than 561 µM with H157. Also, the IC50 in the assay with H23 (Homo sapiens, NCI-H23) was greater than 561 µM; in the assay on HT29 (Homo sapiens, HT-29), 561 µM; in the assay on HCT+/+, greater than 561 µM; in the assay on HCT−/−, greater than 561 µM; in the assay with MalMe3M (Homo sapiens, Malme-3M), greater than 960 µM; with MDA-MB-468 (Homo sapiens, MDA-MB-468, 96 h continual exposure), 283 µM. In addition, the IC50 in the assay with MCF-7 (Homo sapiens, MCF7, 96 h continual exposure) turned out to be 946 µM; in the assay with SkMel28 (Homo sapiens, SK-MEL-28, 96 h continual exposure), 821 µM. Besides, the “% Cells in Pre G0 phase of Cell Cycle” value in assay [1] came to 30.4%. Moreover, the “cleavage and activation of caspase 3 (immunoblot)” value in assay [3] was “promotes the cleavage and thus the activation of caspase 3”.
